Measurements from patent US20170014477A1, “FREE RAPTOR REDUCES AGING- AND OBESITY-INDUCED FATTY LIVER” (The Trustees of Columbia University in the City of New York, priority 2015, published 2017).

What was measured:
PHLPP2 [1] = assay: PHLPP2 phosphorylation (Phos-tag mobility shift; IP and phospho-PKA substrate immunoblot) in hepatocytes; assay type: cell-based, mouse
Excerpt: To investigate the effect of PKA on PHLPP2 phosphorylation in primary hepatocytes, either WT or S1119/1210A mutant of PHLPP2 was immunoprecipitated from cell extracts treated with glucagon or forskolin, and then subjected to immunoblot analysis with an antibody specific for phosphorylated PKA substrate proteins.

PHLPP2 [2] = assay: Western blot of PHLPP2 levels in primary hepatocytes / Hepa1c1c7 cells; assay type: cell-based, mouse; conditions: short- or long-term treatment, Rapamycin (20 nM), Torin1 (250 nM)
Excerpt: The GFP, Raptor and PHLPP1/2 adenoviruses have been described (Miyamoto et al., 2010; Pajvani et al., 2013). The HA-Flag-PHLPP2 adenovirus was constructed by inserting a Flag sequence into HA-PHLPP2 vector (Addgene #22403, courtesy of Alexandra Newton) and adenoviruses encoding HA-Flag-PHLPP2 generated by Welgen, Inc. (Worcester, Mass.). Mouse shPhlpp1 or 2 target sequences were selected among three candidate sequences, respectively and adenoviruses encoding shPhlpp1 or 2 generated by Welgen, Inc. For in vivo studies, we injected […] or 2.5×10^8 purified viral particles per g body weight; we performed metabolic analysis on days 3-5 and euthanized the mice at day 8 or 10 after injection. Infection with adenovirus in primary hepatocytes or Hepa1c1c7 cells was performed at 2.5, 5, or 10 multiplicity of infection (MOI).
We isolated and cultured primary mouse hepatocytes as previously described (Kim et al., 2012). For inhibitor experiments, we treated hepatocytes with 20 nM rapamycin (Cell Signaling), 250 nM Torin1, or vehicle for either 1 h or 24 h.
Tissues and cells were lysed in 0.3% CHAPS lysis buffer (Kim et al., 2002) unless otherwise stated, and whole cell lysates obtained by centrifugation. […]

free Raptor = assay: DSS crosslinking assay for free Raptor in hepatocytes and hepatoma cells; assay type: cell-based, mouse
Method: Liver was lysed in 1% Triton X-100 lysis buffer (Kim et al., 2002) with or without 2.5 mg/ml DSP or DSS, and incubated for 2 h on ice. Crosslinking was quenched with 1 M Tris-HCl (pH 7.5) for 30 min on ice. For in vitro crosslinking assays, DSP or DSS were added to a final concentration of 1 mg/ml culture medium, and quenched by Tris-HCl as above. Equal protein (BCA assay, Thermo) was then subjected to Western blot, with or without IP.

[3] = target: T1, PH domain leucine-rich repeat protein phosphatase 2 (PHLPP2), endogenous (mouse, UniProt Q8BXA7 1-1320); assay: anti-PHLPP2 IP from primary hepatocytes and Hepa1c1c7 cells with or without MG-132, Western blot (FIG. 19i, FIG. 28j)
T1 construct: Endogenous protein, immunoprecipitated with anti-PHLPP2 or co-precipitated with anti-Akt; also called endogenous PHLPP2
T1 sequence (looked up): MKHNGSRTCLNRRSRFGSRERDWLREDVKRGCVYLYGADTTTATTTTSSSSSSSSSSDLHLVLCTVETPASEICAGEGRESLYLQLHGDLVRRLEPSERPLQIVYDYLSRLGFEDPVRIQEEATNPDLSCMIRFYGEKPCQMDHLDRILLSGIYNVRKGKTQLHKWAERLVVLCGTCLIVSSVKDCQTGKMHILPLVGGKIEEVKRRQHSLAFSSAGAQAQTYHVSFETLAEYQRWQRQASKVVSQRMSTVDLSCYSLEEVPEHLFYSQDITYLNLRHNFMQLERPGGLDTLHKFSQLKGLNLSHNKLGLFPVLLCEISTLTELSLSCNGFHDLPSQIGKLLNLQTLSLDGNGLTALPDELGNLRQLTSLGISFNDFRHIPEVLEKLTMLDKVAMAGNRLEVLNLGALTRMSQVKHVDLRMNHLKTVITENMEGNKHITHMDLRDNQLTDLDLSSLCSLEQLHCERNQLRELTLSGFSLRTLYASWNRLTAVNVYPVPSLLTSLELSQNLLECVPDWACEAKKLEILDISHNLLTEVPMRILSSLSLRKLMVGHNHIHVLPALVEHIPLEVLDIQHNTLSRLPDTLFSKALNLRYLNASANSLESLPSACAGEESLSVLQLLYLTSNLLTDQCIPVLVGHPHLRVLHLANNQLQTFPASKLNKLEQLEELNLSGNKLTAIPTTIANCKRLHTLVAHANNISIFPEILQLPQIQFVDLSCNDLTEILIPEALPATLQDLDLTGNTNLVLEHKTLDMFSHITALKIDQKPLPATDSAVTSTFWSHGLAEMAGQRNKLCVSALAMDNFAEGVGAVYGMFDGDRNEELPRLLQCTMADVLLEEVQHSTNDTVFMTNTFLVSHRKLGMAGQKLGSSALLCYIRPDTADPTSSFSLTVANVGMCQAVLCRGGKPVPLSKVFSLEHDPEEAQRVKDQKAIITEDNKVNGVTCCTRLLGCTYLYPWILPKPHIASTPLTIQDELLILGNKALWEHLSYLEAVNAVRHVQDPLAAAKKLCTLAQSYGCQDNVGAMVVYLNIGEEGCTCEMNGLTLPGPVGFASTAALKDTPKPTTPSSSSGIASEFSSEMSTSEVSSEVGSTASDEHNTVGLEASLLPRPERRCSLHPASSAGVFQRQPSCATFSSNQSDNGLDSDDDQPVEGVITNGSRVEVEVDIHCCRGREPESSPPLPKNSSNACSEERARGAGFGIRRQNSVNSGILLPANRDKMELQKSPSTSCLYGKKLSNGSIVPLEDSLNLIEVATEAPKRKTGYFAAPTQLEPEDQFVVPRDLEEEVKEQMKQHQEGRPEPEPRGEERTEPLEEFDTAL

For `O=S(=O)(NCCNC/C=C/c1ccc(Br)cc1)c1cccc2cnccc12` [H89], the “forskolin-mediated PHLPP2 phosphorylation” value (PHLPP2 [1]; pretreatment with PKA inhibitor) was “reduced”.

With `CCC(=O)N1CCN(c2ccc(-n3c(=O)ccc4cnc5ccc(-c6cnc7ccccc7c6)cc5c43)cc2C(F)(F)F)CC1` [Torin1] the “decrease of basal or Raptor-increased PHLPP2 levels” value (PHLPP2 [2]) was “neither”.

glucagon was tested, and the “PKA-mediated phosphorylation of WT PHLPP2” value (PHLPP2 [1]; primary hepatocytes, IP, phosphorylated PKA substrate antibody, not S1119A/S1210A mutant) was “robustly increased”.

With insulin the “free Raptor levels” value (free Raptor; brief exposure) was “ineffectual” and the “free Raptor levels” value (free Raptor; prolonged high-dose treatment to induce insulin resistance, primary hepatocytes or Hepa1c1c7 cells) was “reduced”.

B1: β-TrCP (beta-transducin repeat-containing protein) (other, mouse, UniProt Q3ULA2 1-605, looked up)
chain: MDPAEAVLQEKALKFMCSMPRSLWLGCSSLADSMPSLRCLYNPGTGALTAFQNSSEREDCNNGEPPRKIIPEKNSLRQTYNSCARLCINQETVCLTSTAMKTENCVAKAKLANGTSSMIVPKQRKLSASYEKEKELCVKYFEQWSESDQVEFVEHLISQMCHYQHGHINSYLKPMLQRDFITALPARGLDHIAENILSYLDAKSLCAAELVCKEWYRVTSDGMLWKKLIERMVRTDSLWRGLAERRGWGQYLFKNKPPDENAPPNSFYRALYPKIIQDIETIESNWRCGRHSLQRIHCRSETSKGVYCLQYDDQKIVSGLRDNTIKIWDKSTLECKRILTGHTGSVLCLQYDERVIITGSSDSTVRVWDVNAGEMLNTLIHHCEAVLHLRFNNGMMVTCSKDRSIAVWDMASPTDITLRRVLVGHRAAVNVVDFDDKYIVSASGDRTIKVWNTSTCEFVRTLNGHKRGIACLQYRDRLVVSGSSDNTIRLWDIECGACLRVLEGHEELVRCIRFDNKRIVSGAYDGKIKVWDLMAALDPRAPAGTLCLRTLVEHSGRVFRLQFDEFQIVSSSHDDTILIWDFLNDPAAHAEPPRSPSRTYTYISR
notes: E3 ligase substrate recognition subunit of the SCF complex; endogenous protein in mouse cells
B1: binds [3].
